Results as given in patent publication US7846469B2, “Reversible inhibition of sperm receptor synthesis for contraception” (The Penn State Research Foundation, priority 2006, dated 2010).
Where “and” joins values, the source holds several entries; their conditions need not be identical. Equal entries are not always repeated.

Columns and labels:
[1] = test system: chicken ZPC; assay: Western blot for chicken ZPC in isolated hen granulosa cells treated with nicarbazin; assay type: cell-based
Experimental: FIG. 1 is a Western blot of chicken ZPC proteins.
In a preliminary effort to support this hypothesis, we isolated granulosa cells from primary follicles of a laying hen, and suspended them in a simple cell culture media (1 ml medium (M)199-HEPES supplemented with Hank salts (Gibco-BRL) plus 1 ml Dulbecco modified Eagle medium (DMEM) containing 5% FBS). […] The cells were then disrupted with a sonicator and proteins precipitated and heat solubilized per Barbato et al. (1998). Proteins were concentrated, separated via gel electrophoresis and western blot performed with antibodies to chicken ZPC.

[2] = test system: Pekin Ducks; assay: Dose-response feeding study in Pekin ducks: egg production and fertility; assay type: in vivo, duck
Source text: FIG. 3 depicts the fertility of laid eggs obtained from Pekin Ducks fed varying doses of nicarbazin.
(§1) [Images were taken at 20× magnification with DAPI fluorescent stain.]
(§2) Our first study determined the dose-response relationship for the effect of nicarbazin in reducing egg production and/or hatchability in ducks.
Since all hens in this experiment were artificially inseminated with sperm from untreated drakes, the effects on subsequent fertility were considered to be due entirely to the effect of nicarbazin on the female ducks. […] Further, upon the withdrawal of nicarbazin-treated feed, even the hens receiving the highest dose of nicarbazin returned to normal egg production and fertility within 10 days.

[3] = DNC concentrations in blood and laid eggs of ducks fed nicarbazin; assay type: in vivo, duck; details: 31.25-500 ppm in feed
Source text: as §2

[4] = test system: ZPC; assay: Western blot of ZPC in oocyte (perivitelline) membrane of laid eggs from fed ducks; assay type: in vivo, duck
Source text: Drug feeding began in Week 2; making Week 1 and internal control.
A subsample of eggs were collected during each week of the experiment, in order to dissect, extract and identify the ZPC in the oocyte membrane using and anti-ZPC antibody and western blotting technique. FIG. 4 illustrates that at the 500 ppm dose of nicarbazin, ZPC was undetectable after the 1st week of treatment, and remained absent thereafter.

[5] = test system: sperm attaching to the oocyte; assay: Sperm count on oocyte membrane of eggs from fed, inseminated ducks; assay type: in vivo, duck; details: membranes of eggs from nicarbazin-treated ducks
Source text: as §1
Since there appeared to be a decrease in the amount of ZPC (the primary sperm receptor) present in the duck oocyte membranes, we reasoned that the lack of fertility in any laid eggs should be due to a decline in sperm attaching to the oocyte. FIG. 5 illustrates a pair of sample membranes from both control and nicarbazin treated ducks. Consistent with previous data from our lab (e.g., Barbato et al., 1998) 228±15 sperm/mm2 of oocyte membrane were found in eggs from control ducks, whereas there were 0±15 sperm/mm2 counted on the membranes from nicarbazin-treated ducks.

[6] = test system: inner perivitelline membrane (85% ZPC protein); assay: Electron microscopy of inner perivitelline membrane of mature follicle from fed laying hens; assay type: in vivo, chicken; details: 250 ppm nicarbazin treated feed
Source text: FIG. 6 is an electron micrograph of a mature follicle from control (C) and nicarbazin treated (T) hens.
As a follow-up experiment, we fed a group of 6 laying hens the 250 ppm nicarbazin treated feed, in an attempt to reduce, but not eliminate, ZPC synthesis. Egg membranes were collected from laid eggs and the most mature follicle dissected from both treated and control hens. The membranes were fixed with osmium tetroxide, sectioned via microtome and viewed with electron microscopy.
This micrograph provides direct, visual confirmation of the previously presented data: that is, that oral nicarbazin dosages reduces the ZP3 content of the oocyte membrane.

[7] = test system: rat ZPC; assay: Western blot for ZPC in rat ovarian tissue after 1 week of nicarbazin feeding; assay type: in vivo; details: 500 ppm with 5% propylene glycol, band at approx. 50 kDa
Source text: FIG. 7 is a Western Blot (using mouse ZPC monoclonal antibody) of rat ovarian tissue after 1 week of nicarbazin feeding. [mZPC-mab 1:2000; similar results obtained with dilution of 1:5000 and 1:10000.
(§3) In an attempt to increase nicarbazin absorption in a mammalian species we paired nicarbazin with a typical pharmaceutical carrier, 5% propylene glycol (PGC). A 500 ppm dose was fed to 8 adult, female rats for a 7-day period, at which time the rats were killed and the ovaries removed and placed in RNAlater (to preserve protein, RNA and DNA—4 control rats were also sacrificed). Ovarian proteins and mRNA were extracted via standard laboratory protocols. FIG. 7 illustrates the results of a western blot for ZPC, using a murine monoclonal antibody (which cross-reacts with rat ZPC).

[8] = test system: rat ZPC mRNA; assay: Quantitative rtPCR of ZPC (ZP3) mRNA copy number in rat ovarian tissue; assay type: in vivo
Source text: as §3
Upon finding a reduction in ZPC-immunoreactive band intensity from ovarian samples obtained from treated animals, we designed PCR primers to identify mRNA for rat ZPC. By applying the quantitative rtPCR technique we were able to estimate the number of copies of the ZPC mRNA that were present in the ovarian tissue samples.

[9] = test system: mice; assay: Direct feeding experiment with mating pairs of mice; assay type: in vivo, mouse
Experimental: The indirect biochemical evidence in the previous section led us to attempt a direct feeding experiment with mice. In this case, mice were fed a 0.5% nicarbazin diet (containing 5% propylene glycol). In addition, 7.5% peanut butter was added to the diet to increase palatability. Ten mating pairs of mice were given access to the diet for 4-5 hrs over a […].

[10] = test system: fruit fly; assay: Nicarbazin in fruit fly media; assay type: in vivo; details: ethanol carrier
Experimental: According to the invention, nicarbazin specifically influences the expression of the zona pellucida 3 gene and protein in vertebrates. It is expected that other homologs of the ZP3 gene will also be negatively affected by nicarbazine. For example, there is an insect homolog of ZP3 that is a structural component of the wing vein. Nicarbazin interferes with the expression of the insect homolog in the same manner as the vertebrate Gene.
In a quick experiment, 3-5% nicarbazin preparation was added to the media (food) in fruit fly vials using ethanol as a carrier (since fruit flies are attracted to ethanol).

[11] = test system: broiler-breeder hens; details: cited from earlier work
[12] = test system: FDRL rats; details: high dose (300 mg/kg bw per day phenylurea, 100 mg/kg bw per day pyrimidone), F2a and F3a litters; cited from earlier work

With “equimolar complex of 1,3-N,N′-bis(4-nitrophenyl)urea and 4,6-dimethyl-2(1H)-pyrimidone [nicarbazin]” the cell viability ([1]; 100 mM nicarbazin, granulosa cells) was “all cells were dead”, the “immunoreactive ZPC (western blot)” value ([1]; granulosa cells from primary follicles of a laying hen, lanes 4-6 (1, 10, 100 mM nicarbazin)) was “absence of immunoreactive ZPC” and the fertility of eggs ([2]; 500 ppm nicarbazin ducks, inseminated with 200 million sperm, of 5 eggs set) was 20%. The egg production ([2]; ducks fed 31.25-500 ppm, FIG. 2) was “decline in egg production”, the “time to return to normal egg production and fertility after withdrawal” value ([2]; highest dose, after withdrawal of nicarbazin-treated feed) was no more than 10 days and the “fertility of eggs laid by treated hens” value ([2]; oral doses 31.25-500 ppm, hens inseminated with sperm from untreated drakes, FIG. 3) was “profound effect”. The “DNC concentrations in blood and laid eggs versus fed nicarbazin dose” value [3] was “linear dose-concentration relationship”, the “ZPC in oocyte membrane (western blot)” value ([4]; 250 ppm dose, over time) was “clear decline in the intensity of ZPC” and the “ZPC in oocyte membrane (western blot)” value ([4]; 500 ppm dose, after the 1st week of treatment) was “undetectable”. The “sperm on oocyte membrane” value [5] was 0±15 sperm/mm2, the “width of the inner perivitelline membrane (electron micrograph)” value [6] was “reduction in width” and the “ZPC immunoreactive band intensity (western blot)” value [7] was “reduction in intensity”. The “ZP3 mRNA copy number, mean of triplicate estimate per rat” value ([8]; individual rats fed nicarbazin 500 ppm for 1 week, ovarian tissue) was 0.47 and 0.95 (2×) and 0.75 and 0.50 and 0.85 and 0.77, the “ZP3 mRNA copy number, overall mean” value ([8]; rats fed nicarbazin for 1 week, ovarian tissue, control overall mean 1.00, P = 0.03) was 0.71 and the “reduction in copy number of the ZPC gene” value ([8]; rats fed nicarbazin versus control) was 30%. For the same substance, the conception rate ([9]; mice, 0.5% nicarbazin diet with 5% propylene glycol and 7.5% peanut butter, ten mating pairs, non-treated 90%) was 10%, the pups per litter ([9]; mice, 0.5% nicarbazin diet, non-treated averaging 6 pups per litter) was 0.2 pups/litter and the “reversibility after removal of treated feed” value ([9]; previously treated mice mated over the next month) was “conceived normal litters”. For the same substance, the “teratogenic effects in pups” value ([9]; pups of treated mice) was “no sign of teratogenic effects”, the fly phenotype ([10]; 3% nicarbazin preparation in media) was “deformed wings and could not fly” and the “hatching of fruit fly eggs” value ([10]; 5% nicarbazin preparation in media) was “did not hatch”. For the same substance, the “time to return of normal hatchability and egg production after removal of nicarbazin from feed” value ([11]; after removal from the feed) was 7 to 10 days, the egg production ([11]; higher levels (ca. 700 ppm) in feed) was “eliminated egg production entirely” and the “hatchability of fertile eggs” value ([11]; lower levels of nicarbazin (<125 ppm) in feed) was “significant reduction in hatchability”. For the same substance, the litter size [12] was “slightly fewer pups”.
